Each molecule was assayed against H3 receptor (Rattus norvegicus, UniProt Q9QYN8) (assay: H3 receptor binding, (3H)-N-α-methylhistamine displacement in rat cortical membranes). Settings: male Sprague-Dawley rat brain cortical membranes, 30 minutes at 25° C., Cheng-Prusoff, geometric mean values of 2-10 separate experiments.
Protocol: Briefly, male Sprague-Dawley rat brain cortices were homogenized (1 g tissue/10 mL buffer) in 50 mM Tris-HCl/5 mM EDTA containing protease inhibitor cocktail (Calbiochem) using a polytron set at 20,500 rpm. Homogenates were centrifuged for 20 minutes at 40,000×g. The supernatant was decanted, and pellets were weighed. The pellet was resuspended by polytron homogenization in 40 mL 50 mM Tris-HCl/5 mM EDTA with protease inhibitors and centrifuged for 20 minutes at 40,000×g. […] Test compounds were added to the incubation mixtures prior to initiating the incubation assay by addition of the membranes. Thioperamide (3 μM) was used to determine nonspecific binding. Binding incubations were conducted for 30 minutes at 25° C. and terminated by addition of 2 mL of ice cold 50 mM Tris-HCl (H 7.7) and filtration through 0.3% polyethylenimine-soaked Unifilter plates (Packard). These filters were washed 4 additional times with 2 mL of ice-cold 50 mM Tris-HCl and dried for 1 hour. Radioactivity was determined using liquid scintillation counting techniques. Results were analyzed by Hill transformation and Ki values were determined using the Cheng-Prusoff equation.

Sequence of H3 receptor (Q9QYN8 1-397 isoform Q9QYN8-3): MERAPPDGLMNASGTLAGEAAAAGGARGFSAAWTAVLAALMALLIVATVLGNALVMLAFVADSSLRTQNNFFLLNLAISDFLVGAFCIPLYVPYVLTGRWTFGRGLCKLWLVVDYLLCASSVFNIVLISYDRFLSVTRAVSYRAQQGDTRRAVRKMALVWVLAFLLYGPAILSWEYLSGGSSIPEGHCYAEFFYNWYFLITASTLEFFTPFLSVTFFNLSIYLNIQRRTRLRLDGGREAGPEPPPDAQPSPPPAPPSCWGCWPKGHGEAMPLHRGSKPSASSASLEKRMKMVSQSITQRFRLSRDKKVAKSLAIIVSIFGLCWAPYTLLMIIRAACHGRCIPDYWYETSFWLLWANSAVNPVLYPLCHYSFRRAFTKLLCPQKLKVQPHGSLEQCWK

Compound	Ki [nM]
O=C(NCCC(=O)N1CCN(CCCOc2ccc(-c3noc(-c4ccccc4)n3)c(F)c2)CC1)c1ccsc1 [Example 154, N-[3-(4-{3-[3-fluoro-4-(5-phenyl-1,2,4-oxadiazol-3-yl)phenoxy]propyl}-1-piperazinyl)-3-oxopropyl]-3-thiophenecarboxamide]	25
O=C(NCCC(=O)N1CCN(CCCOc2ccc(-c3noc(-c4ccccc4)n3)c(F)c2)CC1)[C@H]1CCCO1 [Example 155, (2R)-N-[3-(4-{3-[3-fluoro-4-(5-phenyl-1,2,4-oxadiazol-3-yl)phenoxy]propyl}-1-piperazinyl)-3-oxopropyl]tetrahydro-2-furancarboxamide]	17.1
Cc1cc(C)c(C(=O)NCCC(=O)N2CCN(CCCOc3ccc(-c4noc(-c5ccccc5)n4)c(F)c3)CC2)s1 [Example 156, N-[3-(4-{3-[3-fluoro-4-(5-phenyl-1,2,4-oxadiazol-3-yl)phenoxy]propyl}-1-piperazinyl)-3-oxopropyl]-3,5-dimethyl-2-thiophenecarboxamide]	13.7
Cc1cc(C(=O)NCCC(=O)N2CCN(CCCOc3ccc(-c4noc(-c5ccccc5)n4)c(F)c3)CC2)c(C)o1 [Example 157, N-[3-(4-{3-[3-fluoro-4-(5-phenyl-1,2,4-oxadiazol-3-yl)phenoxy]propyl}-1-piperazinyl)-3-oxopropyl]-2,5-dimethyl-3-furamide]	46.1
O=C(NCCC(=O)N1CCN(CCCOc2ccc(-c3noc(-c4ccccc4)n3)c(F)c2)CC1)C1CCCC1 [Example 158, N-[3-(4-{3-[3-fluoro-4-(5-phenyl-1,2,4-oxadiazol-3-yl)phenoxy]propyl}-1-piperazinyl)-3-oxopropyl]cyclopentanecarboxamide]	11.7
C[C@@H](NC(=O)c1cccs1)C(=O)N1CCN(CCCOc2ccc(-c3noc(-c4ccccc4)n3)c(F)c2)CC1 [Example 159, N-[(1R)-2-(4-{3-[3-fluoro-4-(5-phenyl-1,2,4-oxadiazol-3-yl)phenoxy]propyl}-1-piperazinyl)-1-methyl-2-oxoethyl]-2-thiophenecarboxamide]	4.98
C[C@@H](NC(=O)c1cccnc1)C(=O)N1CCN(CCCOc2ccc(-c3noc(-c4ccccc4)n3)c(F)c2)CC1 [Example 160, N-[(1R)-2-(4-{3-[3-fluoro-4-(5-phenyl-1,2,4-oxadiazol-3-yl)phenoxy]propyl}-1-piperazinyl)-1-methyl-2-oxoethyl]nicotinamide]	2.29
C[C@@H](NC(=O)c1ccco1)C(=O)N1CCN(CCCOc2ccc(-c3noc(-c4ccccc4)n3)c(F)c2)CC1 [Example 161, N-[(1R)-2-(4-{3-[3-fluoro-4-(5-phenyl-1,2,4-oxadiazol-3-yl)phenoxy]propyl}-1-piperazinyl)-1-methyl-2-oxoethyl]-2-furamide]	2.41
C[C@@H](NC(=O)c1ccno1)C(=O)N1CCN(CCCOc2ccc(-c3noc(-c4ccccc4)n3)c(F)c2)CC1 [Example 162, N-[(1R)-2-(4-{3-[3-fluoro-4-(5-phenyl-1,2,4-oxadiazol-3-yl)phenoxy]propyl}-1-piperazinyl)-1-methyl-2-oxoethyl]-5-isoxazolecarboxamide]	13
C[C@@H](NC(=O)[C@@H]1CCCO1)C(=O)N1CCN(CCCOc2ccc(-c3noc(-c4ccccc4)n3)c(F)c2)CC1 [Example 163, (2S)-N-[(1R)-2-(4-{3-[3-fluoro-4-(5-phenyl-1,2,4-oxadiazol-3-yl)phenoxy]propyl}-1-piperazinyl)-1-methyl-2-oxoethyl]tetrahydro-2-furancarboxamide]	8.35
C[C@@H](NC(=O)CCN1CCOCC1)C(=O)N1CCN(CCCOc2ccc(-c3noc(-c4ccccc4)n3)c(F)c2)CC1 [Example 164, N-[(1R)-2-(4-{3-[3-fluoro-4-(5-phenyl-1,2,4-oxadiazol-3-yl)-phenoxy]propyl}-1-piperazinyl)-1-methyl-2-oxoethyl]-3-(4-morpholinyl)propanamide]	6.37
CC(C)CC(=O)N[C@H](C)C(=O)N1CCN(CCCOc2ccc(-c3noc(-c4ccccc4)n3)c(F)c2)CC1 [Example 165, N-[(1R)-2-(4-{3-[3-fluoro-4-(5-phenyl-1,2,4-oxadiazol-3-yl)phenoxy]propyl}-1-piperazinyl)-1-methyl-2-oxoethyl]-3-methylbutanamide]	11
C[C@@H](N)C(=O)N1CCN(CCCOc2ccc(-c3noc(CC4CCCC4)n3)c(F)c2)CC1 [Example 168, (2R)-1-[4-(3-{4-[5-(cyclopentylmethyl)-1,2,4-oxadiazol-3-yl]-3-fluorophenoxy}propyl)-1-piperazinyl]-1-oxo-2-propanamine]	6.79
C[C@@H](N)C(=O)N1CCCN(CCCOc2ccc(-c3noc(CC4CCCC4)n3)c(F)c2)CC1 [Example 169, (2R)-1-[4-(3-{4-[5-(cyclopentylmethyl)-1,2,4-oxadiazol-3-yl]-3-fluorophenoxy}propyl)-1,4-diazepan-1-yl]-1-oxo-2-propanamine]	5.63
CCC(=O)N[C@H](C)C(=O)N1CCN(CCCOc2ccc(-c3noc(CC4CCCC4)n3)c(F)c2)CC1 [Example 170, N-{(1R)-2-[4-(3-{4-[5-(cyclopentylmethyl)-1,2,4-oxadiazol-3-yl]-3-fluorophenoxy}propyl)-1-piperazinyl]-1-methyl-2-oxoethyl}propanamide]	8.74
C[C@@H](NC(=O)CC(C)(C)C)C(=O)N1CCN(CCCOc2ccc(-c3noc(CC4CCCC4)n3)c(F)c2)CC1 [Example 171, N-{(1R)-2-[4-(3-{4-[5-(cyclopentylmethyl)-1,2,4-oxadiazol-3-yl]-3-fluorophenoxy}propyl)-1-piperazinyl]-1-1-methyl-2-oxoethyl}-3,3-dimethylbutanamide]	5.42
C[C@@H](NC(=O)CCN1CCOCC1)C(=O)N1CCN(CCCOc2ccc(-c3noc(CC4CCCC4)n3)c(F)c2)CC1 [Example 172, N-{(1R)-2-[4-(3-{4-[5-(cyclopentylmethyl)-1,2,4-oxadiazol-3-yl]-3-fluorophenoxy}propyl)-1-piperazinyl]-1-methyl-2-oxoethyl}-3-(4-morpholinyl)propanamide]	1.22
Cc1ccc(C(=O)N[C@H](C)C(=O)N2CCN(CCCOc3ccc(-c4noc(CC5CCCC5)n4)c(F)c3)CC2)cc1 [Example 173, N-{(1R)-2-[4-(3-{4-[5-(cyclopentylmethyl)-1,2,4-oxadiazol-3-yl]-3-fluorophenoxy}propyl)-1-piperazinyl]-1-methyl-2-oxoethyl}-4-methylbenzamide]	1.56
C[C@@H](NC(=O)c1ccc(F)cc1)C(=O)N1CCN(CCCOc2ccc(-c3noc(CC4CCCC4)n3)c(F)c2)CC1 [Example 174, N-{(1R)-2-[4-(3-{4-[5-(cyclopentylmethyl)-1,2,4-oxadiazol-3-yl]-3-fluorophenoxy}propyl)-1-piperazinyl]-1-methyl-2-oxoethyl}-4-fluorobenzamide]	0.81
COc1ccc(C(=O)N[C@H](C)C(=O)N2CCN(CCCOc3ccc(-c4noc(CC5CCCC5)n4)c(F)c3)CC2)cc1 [Example 175, N-{(1R)-2-[4-(3-{4-[5-(cyclopentylmethyl)-1,2,4-oxadiazol-3-yl]-3-fluorophenoxy}propyl)-1-piperazinyl]-1-methyl-2-oxoethyl}-4-methoxybenzamide]	1.88

From patent US6559140B2 (Abbott Laboratories, priority 2000, dated 2003)
